{"source": "patent US20230010108", "conditions": "ester bond, 2 steps", "note": "Where two headings read alike, the source gives them in different places."}
{"smiles": "C[C@@H](C[C@H](Cc1ccc2c(c1)NC(=O)CCCNC(=O)[C@H](CCCCNC(=O)CCOCCOCCOCCC(=O)NCCOCCOCCC(=O)NCCOCCOCCC(=O)OC(C)(C)C)NC(=O)CCCNC(=O)[C@H](NC(=O)CCN1C(=O)C=CC1=O)[C@H](NC(=O)CCN1C(=O)C=CC1=O)C(=O)NCCCC(=O)O2)NC(=O)OC(C)(C)C)C(=O)OC(C)(C)C", "values": [{"measurement": "ring closure, isolated yield", "setting": "from C[C@@H](C[C@H](Cc1ccc(O)c(NC(=O)CCCNC(=O)[C@H](CCCCNC(=O)CCOCCOCCOCCC(=O)NCCOCCOCCC(=O)NCCOCCOCCC(=O)OC(C)(C)C)NC(=O)CCCNC(=O)[C@@H](NC(=O)CCN2C(=O)C=CC2=O)[C@@H](NC(=O)CCN2C(=O)C=CC2=O)C(=O)NCCCC(=O)O)c1)NC(=O)OC(C)(C)C)C(=O)OC(C)(C)C, 26-membered ring", "value": 39, "unit": "%"}]}
{"smiles": "COCCOCCOCCOCCOCCOCCOCCOCCOCCOCC(=O)NCCCC[C@@H]1NC(=O)[C@@H](NC(=O)CCCN2C(=O)C=CC2=O)[C@@H](NC(=O)CCCN2C(=O)C=CC2=O)C(=O)N[C@@H](CCCCNC(=O)COCCOCCOCCOCCOCCOCCOCCOCCOCCOC)C(=O)NCCCC(=O)Nc2cc(C[C@@H](C[C@H](C)C(=O)OC(C)(C)C)NC(=O)OC(C)(C)C)ccc2OC(=O)CCCNC1=O", "values": [{"measurement": "ring closure, isolated yield", "setting": "from (7S,10R,11S,14S)-10,11-bis(4-(2,5-dioxo-2,5-dihydro-1H-pyrrol-1-yl)butanamido)-6,9,12,15-tetraoxo-7,14-bis(31-oxo-2,5,8,11,14,17,20,23,26,29-decaoxa-32-azahexatriacontan-36-yl)-5,8,13,16-tetraazaicosane-1,20-dioic acid + (2S,4R)-tert-butyl 5-(3-amino-4-hydroxyphenyl)-4-((tert-butoxycarbonyl)amino)-2-methylpentanoate?, 24-membered ring", "value": 52, "unit": "%"}]}
{"smiles": "COC(=O)[C@H](Cc1ccc2c(c1)NC(=O)CCCNC(=O)C(NC(=O)CCN1C(=O)C=CC1=O)C(NC(=O)CCN1C(=O)C=CC1=O)C(=O)NCCCC(=O)O2)NC(=O)OC(C)(C)C", "note": "(stereo partly shown)", "values": [{"measurement": "ring closure, isolated yield", "setting": "from 4,4′-((2,3-bis(2-(2,5-dioxo-2,5-dihydro-1H-pyrrol-1-yl)acetamido)-succinyl)bis(azanediyl))dibutanoic acid + (S)-methyl 3-(3-amino-4-hydroxyphenyl)-2-(tert-butoxycarbonylamino)propanoate?, 18-membered ring", "value": 68, "unit": "%"}]}
{"smiles": "CC(C)[C@@H]1NC(=O)[C@H](C)NC(=O)CCCNC(=O)[C@H](NC(=O)CN2C(=O)C=CC2=O)[C@H](NC(=O)CN2C(=O)C=CC2=O)C(=O)NCCCC(=O)Oc2ccc(C[C@@H](C[C@H](C)C(=O)OC(C)(C)C)NC(=O)OC(C)(C)C)cc2NC1=O", "values": [{"measurement": "ring closure, isolated yield", "setting": "from (2S,4R)-tert-butyl 5-(3-((S)-2-((S)-2-aminopropanamido)-3-methylbutanamido)-4-hydroxyphenyl)-4-((tert-butoxycarbonyl)amino)-2-methylpentanoate + 4,4′-(((2R,3S)-2,3-bis(2-(2,5-dioxo-2,5-dihydro-1H-pyrrol-1-yl)acetamido)succinyl)bis(azanediyl))-dibutanoic acid?, 24-membered ring", "value": 62, "unit": "%"}]}
